From patent US20020055639A1, “Pyrazole derivatives as herbicides” (priority 1997, published 2002)

Key:
Assay type in all cases: in vivo
Set-up in all cases: key: 1=total damage; 9=no action; Ratings of from 1 to 4 (especially from 1 to 3) indicate good to very good herbicidal action
[1] = system: Avena; experiment: Pre-emergence herbicidal action (Example B1); settings: 2000 g a.i./ha, sprayed immediately after sowing, evaluated after 3 weeks, scale of nine ratings
Experimental: (§1) Monocotyledonous and dicotyledonous test plants are sown in standard soil in plastics pots. Immediately after sowing, the test compounds, each in the form of an aqueous suspension or emulsion prepared from a 25% emulsifiable concentrate (Example F1, c) in WO 97/34485, pages 9 and 10), are applied by spraying at a rate of application of 2000 g of active ingredient/ha (500 liters water/ha). The test plants are then grown in a greenhouse under optimum conditions. After 3 weeks' test duration, the test is evaluated in accordance with a scale of nine ratings (1=total damage, 9=no action). Ratings of from 1 to 4 (especially from 1 to 3) indicate good to very good herbicidal action.
(§2) Test plants: Avena, Setaria, Sinapis, Stellaria

[2] = system: Setaria; experiment: Pre-emergence herbicidal action (Example B1); settings: 2000 g a.i./ha, sprayed immediately after sowing, evaluated after 3 weeks, scale of nine ratings
Experimental: as §1, §2

[3] = system: Sinapis; experiment: Pre-emergence herbicidal action (Example B1); settings: 2000 g a.i./ha, sprayed immediately after sowing, evaluated after 3 weeks, scale of nine ratings
Experimental: as §1, §2

[4] = system: Stellaria; experiment: Pre-emergence herbicidal action (Example B1); settings: 2000 g a.i./ha, sprayed immediately after sowing, evaluated after 3 weeks, scale of nine ratings
Experimental: as §1, §2

[5] = system: Avena; experiment: Post-emergence herbicidal action (Example B2); settings: 2000 g a.i./ha, sprayed at 4- to 6-leaf stage, evaluated after approximately 18 days, scale of nine ratings
Experimental: (§3) Monocotyledonous and dicotyledonous test plants are grown in a greenhouse in plastics pots containing standard soil and at the 4- to 6-leaf stage are sprayed with an aqueous suspension or emulsion of the test substances of formula I, prepared from a 25% emulsifiable concentrate (Example F1, c) in WO 97/34485, pages 9 and 10), at a rate of application corresponding to 2000 g of active ingredient/ha (500 liters water/ha). The test plants are then grown on in the greenhouse under optimum conditions. After approximately 18 days' test duration, the test is evaluated in accordance with a scale of nine ratings (1=total damage, 9=no action). Ratings of from 1 to 4 (especially from 1 to 3) indicate good to very good herbicidal action.
as §2

[6] = system: Setaria; experiment: Post-emergence herbicidal action (Example B2); settings: 2000 g a.i./ha, sprayed at 4- to 6-leaf stage, evaluated after approximately 18 days, scale of nine ratings
Experimental: as §3, §2

[7] = system: Sinapis; experiment: Post-emergence herbicidal action (Example B2); settings: 2000 g a.i./ha, sprayed at 4- to 6-leaf stage, evaluated after approximately 18 days, scale of nine ratings
Experimental: as §3, §2

[8] = system: Stellaria; experiment: Post-emergence herbicidal action (Example B2); settings: 2000 g a.i./ha, sprayed at 4- to 6-leaf stage, evaluated after approximately 18 days, scale of nine ratings
Experimental: as §3, §2

| SMILES | Pre-emergence action: Avena (rating) [1] | Pre-emergence action: Setaria (rating) [2] | Pre-emergence action: Sinapis (rating) [3] | Pre-emergence action: Stellaria (rating) [4] | Post-emergence action: Avena (rating) [5] | Post-emergence action: Setaria (rating) [6] | Post-emergence action: Sinapis (rating) [7] | Post-emergence action: Stellaria (rating) [8] |
| --- | --- | --- | --- | --- | --- | --- | --- | --- |
| C#CCn1c(-c2nn(C)c(C(F)(F)F)c2Br)c(F)cc(Cl)c1=O [Example 10.100] | 1 | 1 | 1 | 1 | 1 | 2 | 1 | 1 |
| C=CCn1c(-c2nn(C)c(OC(F)F)c2Cl)c(F)cc(Cl)c1=O [Example 1.080] | 1 | 1 | 1 | 1 | 1 | 1 | 1 | 1 |
| Cn1nc(-c2c(F)cc(Cl)c(=O)n2CC#N)c(Cl)c1OC(F)F [Example 1.126] | 1 | 1 | 1 | 1 | 1 | 1 | 1 | 1 |
| CCC(=O)Cn1c(-c2nn(C)c(OC(F)F)c2Cl)c(F)cc(Cl)c1=O [Example 1.302] | 1 | 1 | 1 | 1 | 1 | 1 | 1 | 1 |
| Cn1nc(-c2c(F)cc(Cl)c(=O)n2CCCc2ccccc2)c(Cl)c1OC(F)F [Example 1.106] | 2 | 1 | 1 | 1 | 3 | 3 | 1 | 1 |
| CCOC(=O)Cn1c(-c2nn(C)c(OC(F)F)c2Cl)c(F)cc(Cl)c1=O [Example 1.181] | 1 | 1 | 1 | 1 | 1 | 1 | 1 | 1 |
| CCOC(=O)CCCn1c(-c2nn(C)c(OC(F)F)c2Cl)c(F)cc(Cl)c1=O [Example 1.205] | 1 | 1 | 1 | 1 | 1 | 1 | 1 | 1 |
